Reference: patent US20100260674A1, “QUINAZOLINE DERIVATIVES AND METHODS OF TREATMENT” (Concert Pharmaceuticals, Inc., priority 2006, published 2010)
Structures can show the parent of a compound that is named as a salt.

Test: Metabolic stability in pooled human liver microsomes
Settings: 0.5 mg/mL HLM
Experimental: The metabolic stability of compounds of the invention was tested using pooled liver microsomal incubations. Full scan LC-MS analysis was then performed to detect major metabolites. Samples of the test compounds, exposed to pooled human liver microsomes, were analyzed using HPLC-MS (or MS/MS) detection. For determining metabolic stability, multiple reaction monitoring (MRM) was used to measure the disappearance of the test compounds. Q1 full scans were used to detect the major metabolites.
Experimental Procedures. Human liver microsomes (“HLM”; 20 mg/mL) are obtained from Xenotech, LLC (Lenexa, Kans.). β-nicotinamide adenine dinucleotide phosphate, reduced form (NADPH), magnesium chloride (MgCl2), and dimethyl sulfoxide (DMSO) are purchased from Sigma-Aldrich.
Stock solutions of test compounds (7.5 mM) were prepared in DMSO. […] The 20 mg/mL human liver microsomes were diluted to 0.625 mg/mL in 0.1 M potassium phosphate buffer, pH 7.4, containing 3 mM MgCl2. The diluted microsomes (375 μL) were added to wells of a 96-well deep-well polypropylene plate in triplicate. […] Reactions were initiated by addition of 125 μL of pre-warmed NADPH solution (8 mM NADPH in 0.1M potassium phosphate buffer, pH 7.4, containing 3 mM MgCl2). […] The reaction mixtures were incubated at 37° C., and 50 μL aliquots were removed at 0, 5, 10, 20, and 30 minutes and added to shallow-well 96-well plates which contained 50 μL of ice-cold ACN with internal standard to stop the reactions. The plates were stored at 4° C. for 20 minutes after which 100 μL of water was added to the wells of the plate before centrifugation to pellet precipitated proteins. Supernatants were transferred to another 96-well plate and analyzed for amounts of parent remaining by LC-MS/MS using an Applied Bio-systems API 4000 mass spectrometer.
The in vitro t1/2s for test compounds were calculated from the slopes of the linear regression of % parent remaining (ln) vs incubation time relationship. in vitro t1/2=0.693/k, where k=−[slope of linear regression of % parent remaining(ln) vs incubation time]. Data analysis was performed using Microsoft Excel Software.

For [2H]C([2H])([2H])OC([2H])([2H])COc1cc2ncnc(Nc3cccc(C#C)c3)c2cc1OCC([2H])([2H])OC([2H])([2H])[2H] [Compound 109, N-(3-(Ethynyl-d1)phenyl)-6,7-bis(2-(methoxy-d3)-2,2-d2-ethoxy) quinazolin-4-amine], the “longer t1/2 compared to erlotinib” value was 44%.

Same assay, conditions: human, microsomes, pH 7.4

[2H]C([2H])([2H])OCCOc1cc2ncnc(Nc3cccc(C#C)c3)c2cc1OCCOC([2H])([2H])[2H] [Compound 105, N-(3-Ethynylphenyl)-6,7-bis(2-(methoxy-d3)ethoxy)quinazolin-4-amine hydrochloride] and [2H]C([2H])([2H])OC([2H])([2H])COc1cc2ncnc(Nc3cccc(C#C)c3)c2cc1OCC([2H])([2H])OC([2H])([2H])[2H] [Compound 109, N-(3-(Ethynyl-d1)phenyl)-6,7-bis(2-(methoxy-d3)-2,2-d2-ethoxy) quinazolin-4-amine] are within 1.5-fold of each other in half-life at 1 μM: 62.3 min for the first, 83.5 min for the second.

[2H]C([2H])(COc1cc2ncnc(Nc3cccc(C#C)c3)c2cc1OCC([2H])([2H])OC)OC [Compound 106, N-(3-ethynylphenyl)-6,7-bis(2-methoxyethoxy)quinazolin-4-amine] and C#Cc1cccc(Nc2ncnc3cc(OCCOC)c(OCCOC)cc23)c1 [erlotinib, N-(3-ethynylphenyl)-6,7-bis(2-methoxyethoxy)quinazolin-4-amine, reference compound] are within 1.5-fold of each other in half-life at 1 μM: 43.8 min for the first, 57.8 min for the second.

[2H]C#Cc1cccc(Nc2ncnc3cc(OCCOC)c(OCCOC)cc23)c1 [Compound 110, N-(3-(Ethynyl-d1)phenyl)-6,7-bis(2-methoxyethoxy) quinazolin-4-amine hydrochloride] gave a half-life at 1 μM of 42.7 min.
